This is an account of results in ChEMBL document CHEMBL1157728, “Novel small molecule bradykinin B1 receptor antagonists. Part 2: 5-membered diaminoheterocycles” (Bioorg Med Chem Lett, 2010).

By IC50 is commonly meant the concentration at which inhibition is half-maximal. By solubility is commonly meant the dissolved amount per volume that the medium holds. The term efflux ratio denotes a quotient of directional permeabilities that is used to spot active efflux.

In brackets after ≈: the same amount, converted by molar mass.

The target in series [1] is T1, B1 bradykinin receptor (Homo sapiens, UniProt P46663).
T1 sequence (P46663 whole entry): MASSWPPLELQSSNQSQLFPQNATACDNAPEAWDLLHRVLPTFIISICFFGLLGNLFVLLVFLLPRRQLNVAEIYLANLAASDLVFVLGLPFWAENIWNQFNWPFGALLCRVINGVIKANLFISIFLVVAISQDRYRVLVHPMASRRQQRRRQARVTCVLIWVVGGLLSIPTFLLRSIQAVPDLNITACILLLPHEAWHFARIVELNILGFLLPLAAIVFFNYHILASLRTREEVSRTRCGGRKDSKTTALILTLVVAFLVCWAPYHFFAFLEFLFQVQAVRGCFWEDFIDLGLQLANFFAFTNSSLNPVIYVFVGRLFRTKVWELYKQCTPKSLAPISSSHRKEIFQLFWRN
Put plainly: Antagonist activity at bradykinin B1 receptor in human IMR90 cells pretreated with IL1-beta assessed as inhibition of DAKD-induced calcium mobilization. The series is classed as functional, cell-based, IMR-90. Background: Calcium flux is commonly read through the fluorescence of an indicator in the cells.

A short description of series [2]: Solubility in water. It counts as physicochemical.
The nature of series [3]: Efflux ratio of permeability from basolateral to apical side to apical to basolateral side in human Caco-2 cells. It counts as ADME, cell-based.
Series [4] in a line: Metabolic stability in human liver microsomes assessed as compound remaining after 1 hr. It counts as ADME, Microsome. The conditions noted are these: read-out: Stability. In general terms: Liver microsomes are a subcellular fraction often used to study metabolism.
Series [5] in a line: Apparent permeability from apical to basolateral side of human Caco-2 cells. Particulars: read-out: permeability. The series is classed as ADME, cell-based.
Series [6] can be described thus: Solubility of the compound. The series is classed as physicochemical.
Series [7] can be described thus: Solubility in aqueous buffer. It counts as physicochemical.

On to `CC(=O)Nn1c(NCc2ccc(-c3cc(Cl)cc(F)c3-c3noc(C)n3)cc2F)nc2ccccc21`, for which, in series [1], the IC50 was 4.6 nM. Besides, in series [2], the concentration in solution (solubility) was 40 µM (≈ 20.4 µg/mL).

Turning to `COc1cc(C(=O)Nn2ccnc2NCc2ccc(-c3cc(Cl)cc(F)c3-c3noc(C)n3)cc2F)on1`, the IC50 in series [1] turned out to be 1.7 nM. Moreover, in series [2], the solubility was determined as 42 µM (≈ 22.8 µg/mL).

For the compound `COC(=O)c1c(F)cccc1-c1ccc(CNc2nc3ccccc3[nH]2)c(F)c1`, the IC50 in series [1] came out at 3500 nM.

On to `COc1cc(C(=O)Nn2c(NCc3ccc(-c4cc(Cl)cc(F)c4-c4noc(C)n4)cc3F)nc(C)c2C)on1`, for which, in series [1], the IC50 came out at 85 nM. The solubility in series [2] stood at 40 µM (≈ 22.8 µg/mL).

For the compound `CC(=O)Nn1ccnc1NCc1ccc(-c2cc(Cl)cc(F)c2-c2noc(C)n2)cc1F`, in series [1], the IC50 was 1.6 nM.

For `COc1cc(C(=O)Nc2nonc2NCc2ccc(-c3cc(Cl)cc(F)c3-c3noc(C)n3)cc2F)on1`, in series [1], the 50% inhibitory concentration (IC50) came out at 1 nM. Moreover, in series [3], the efflux ratio worked out at 1. The remaining at 1 h in series [4] turned out to be 61%. For the same compound, in series [5], the Papp A→B was 48 ×10⁻⁶ cm/s. This compound displayed a solubility in series [6] of 12 µM (≈ 6.53 µg/mL).

Turning to `COC(=O)c1c(F)cccc1-c1ccc(CN2Cc3ccccc3C2=O)c(F)c1`, the IC50 in series [1] was 6100 nM.

For `COc1cc(C(=O)Nc2nsnc2NCc2ccc(-c3cc(Cl)cc(F)c3-c3noc(C)n3)cc2F)on1`, the IC50 in series [1] was 0.6 nM.

`COC(=O)c1c(F)cccc1-c1ccc(CN2CCCC2=O)c(F)c1`: in series [1], the IC50 was 42000 nM.

Turning to `COC(=O)c1c(F)cccc1-c1ccc(CNC(C)=O)c(F)c1`, in series [1], the 50% inhibitory concentration (IC50) was determined as 35000 nM.

Regarding `CC(=O)Nc1nonc1NCc1ccc(-c2cc(Cl)cc(F)c2-c2noc(C)n2)cc1F`, in series [1], the IC50 turned out to be 7.7 nM. The compound further returned a solubility in series [6] of 21 µM (≈ 9.68 µg/mL).

Take `COc1cc(C(=O)Nn2c(NCc3ccc(-c4cc(Cl)cc(F)c4-c4noc(C)n4)cc3F)nc3ccccc32)on1`: in series [1], the IC50 was found to be 0.7 nM. Also, the efflux ratio in series [3] is 7.1. Moreover, in series [7], the solubility amounted to 14 µM (≈ 8.29 µg/mL).

With `COc1cc(C(=O)Nc2cn[nH]c2NCc2ccc(-c3cc(Cl)cc(F)c3-c3noc(C)n3)cc2F)on1`, the IC50 in series [1] was 3.5 nM.

For the compound `CC(=O)Nc1nsnc1NCc1ccc(-c2cc(Cl)cc(F)c2-c2noc(C)n2)cc1F`, in series [1], the IC50 was 1.7 nM.

For the compound `CC(=O)Nn1c(Cl)cnc1NCc1ccc(-c2cc(Cl)cc(F)c2-c2noc(C)n2)cc1F`, the 50% inhibitory concentration (IC50) in series [1] was determined as 0.3 nM.

With `CC(=O)Nn1c(NCc2ccc(-c3cc(Cl)cc(F)c3-c3noc(C)n3)cc2F)nc(C)c1C`, the IC50 in series [1] worked out at 180 nM.
